From patent publication US20250186437A1, “CARBOLINE COMPOUNDS AND USE THEREOF” (PTC Therapeutics, Inc., priority 2021, published 2025)

Legend:
MOLM-13 cells [1] = test: MOLM-13 Uridine Rescue Assay; assay type: cell-based; details: Homo sapiens; MOLM-13 cell proliferation with 100 μM Uridine added, 72 Hours of culture
Procedure: The following assay was conducted to measure proliferation of MOLM-13 cells in the presence of each compound studied. This assay was included as an indicator of DHODH inhibition, as growth of MOLM-13 cells is known to depend on synthesis of pyrimidines using the de novo pathway, which can be blocked by inhibition of DHODH. • 1. MOLM-13 cells were cultured in RPMI 1640 medium+10% Fetal Bovine Serum (FBS). Only low passage cells (<20) were used for the compound tests • 2. On day 1, Log-phase growing Molm-13 Cells were counted and diluted to 10^5 cells/mL in RPMI 1640 medium+10% FBS • 3. 100 μL of diluted MOLM-13 cells in 96 well white plates were seeded, for a final density of 10^4 cells/well. • 4. 0.5 μL of pre-diluted 200× compounds or DMSO control was added to each well. The final DMSO concentration was 0.5%. • 5. After 72 Hours of culture at 37° C., 5% CO2, the plates were taken out and cooled to RT, then 50 μL CellTiter-Glo® (Promega) was added, and the composition was mixed at RT for 10 minutes. • 6. The plates were then read by ViewLux (Speed-fast, Gain-High, Bining-1X, 5 seconds).
Several compounds were also tested in a Uridine rescue assay. In the Uridine rescue assay, using the procedure in Example 1 above, an additional plate of MOLM-13 cell cultures was prepared, to which 100 μM of Uridine was added in step 3 of the process.

MOLM-13 cells [2] = test: MOLM-13 Cell Proliferation Assay (indicator of DHODH inhibition); assay type: cell-based; details: Homo sapiens, 72 Hours of culture, CellTiter-Glo, no uridine
How it was run: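 Low-passage MOLM-13 cells (10^4/well) in RPMI 1640 + 10% FBS exposed to compound (0.5% DMSO final) for 72 h at 37 °C, 5% CO2. Viability read by CellTiter-Glo luminescence; growth reflects de novo pyrimidine synthesis dependent on DHODH.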

SMILES	IC50 (MOLM-13 cells [1])	IC50 (MOLM-13 cells [2])
Cc1ccc(C2c3[nH]c4c(N)cc(Cl)cc4c3CCN2c2nccc(C(F)(F)F)n2)c(F)c1F (stereo not shown) [Compound 248, 6-chloro-1-(2,3-difluoro-4-methylphenyl)-2-[4-(trifluoromethyl)pyrimidin-2-yl]-2,3,4,9-tetrahydro-1H-pyrido[3,4-b]indol-8-amine]	8550 nM	0.5 nM
Cc1nc(C)nc(N2CCc3c([nH]c4ccc(Cl)cc34)C2c2ccc(C)c(F)c2F)n1 (stereo not shown) [Compound 253, 6-chloro-1-(2,3-difluoro-4-methylphenyl)-2-(4,6-dimethyl-1,3,5-triazin-2-yl)-2,3,4,9-tetrahydro-1H-pyrido[3,4-b]indole]	6560 nM	1.9 nM
Cc1ccc(C2c3[nH]c4ccc(Cl)cc4c3CCN2c2nccc(C(F)(F)F)n2)c(F)c1 (stereo not shown) [Compound 254, 6-chloro-1-(2-fluoro-4-methylphenyl)-2-[4-(trifluoromethyl)pyrimidin-2-yl]-2,3,4,9-tetrahydro-1H-pyrido[3,4-b]indole]	6910 nM	2.2 nM
N#Cc1ccc(C2c3[nH]c4ccc(Cl)cc4c3CCN2c2nccc(C(F)(F)F)n2)c(F)c1 (stereo not shown) [Compound 255, 4-{6-chloro-2-[4-(trifluoromethyl)pyrimidin-2-yl]-2,3,4,9-tetrahydro-1H-pyrido[3,4-b]indol-1-yl}-3-fluorobenzonitrile]	15600 nM	2.2 nM
Cc1ccc(C2c3[nH]c4ccc(Br)cc4c3CCN2c2nccc(C(F)(F)F)n2)cc1 (stereo not shown) [Compound 264, 6-bromo-1-(4-methylphenyl)-2-[4-(trifluoromethyl)pyrimidin-2-yl]-2,3,4,9-tetrahydro-1H-pyrido[3,4-b]indole]	20900 nM	0.9 nM
Cc1ccc(C2c3[nH]c4ccc([N+](=O)[O-])cc4c3CCN2c2nccc(C(F)(F)F)n2)cc1 (stereo not shown) [Compound 265, 1-(4-methylphenyl)-6-nitro-2-[4-(trifluoromethyl)pyrimidin-2-yl]-2,3,4,9-tetrahydro-1H-pyrido[3,4-b]indole]	10700 nM	3 nM
Cc1ccc2[nH]c3c(c2c1)CCN(c1nccc(C(F)(F)F)n1)C3c1ccc(C)c(F)c1F (stereo not shown) [Compound 271, 1-(2,3-difluoro-4-methylphenyl)-6-methyl-2-[4-(trifluoromethyl)pyrimidin-2-yl]-2,3,4,9-tetrahydro-1H-pyrido[3,4-b]indole]	22700 nM	3.7 nM
Cc1cc(N)c2[nH]c3c(c2c1)CCN(c1nccc(C(F)(F)F)n1)C3c1ccc(C)c(F)c1F (stereo not shown) [Compound 272, 1-(2,3-difluoro-4-methylphenyl)-6-methyl-2-[4-(trifluoromethyl)pyrimidin-2-yl]-2,3,4,9-tetrahydro-1H-pyrido[3,4-b]indol-8-amine]	7680 nM	7.9 nM
Cc1ccc(C2c3[nH]c4ccc(Cl)c(N)c4c3CCN2c2nccc(C(F)(F)F)n2)c(F)c1F (stereo not shown) [Compound 273, 6-chloro-1-(2,3-difluoro-4-methylphenyl)-2-[4-(trifluoromethyl)pyrimidin-2-yl]-2,3,4,9-tetrahydro-1H-pyrido[3,4-b]indol-5-amine]	29700 nM	7.5 nM
N#Cc1ccc(C2c3[nH]c4ccc(Cl)cc4c3CCN2c2nccc(C(F)(F)F)n2)c(F)c1F (stereo not shown) [Compound 278, 4-{6-chloro-2-[4-(trifluoromethyl)pyrimidin-2-yl]-2,3,4,9-tetrahydro-1H-pyrido[3,4-b]indol-1-yl}-2,3-difluorobenzonitrile]	4810 nM	1.7 nM
Cc1ccc(C2c3[nH]c4cc(N)c(Cl)cc4c3CCN2c2nccc(C(F)(F)F)n2)c(F)c1F (stereo not shown) [Compound 282, 6-chloro-1-(2,3-difluoro-4-methylphenyl)-2-[4-(trifluoromethyl)pyrimidin-2-yl]-2,3,4,9-tetrahydro-1H-pyrido[3,4-b]indol-7-amine]	11500 nM	23.2 nM
Cc1nc(C)nc(N2CCc3c([nH]c4ccc(Cl)cc34)C2c2ccc(N3CCOCC3)c(F)c2F)n1 (stereo not shown) [Compound 284, 6-chloro-1-[2,3-difluoro-4-(morpholin-4-yl)phenyl]-2-(4,6-dimethyl-1,3,5-triazin-2-yl)-2,3,4,9-tetrahydro-1H-pyrido[3,4-b]indole]	12200 nM	12.9 nM
FC(F)(F)c1ccnc(N2CCc3c([nH]c4ccc(-n5nccn5)cc34)C2c2cnc(N3CCOCC3)nc2)n1 (stereo not shown) [Compound 288, 1-[2-(morpholin-4-yl)pyrimidin-5-yl]-6-(2H-1,2,3-triazol-2-yl)-2-[4-(trifluoromethyl)pyrimidin-2-yl]-2,3,4,9-tetrahydro-1H-pyrido[3,4-b]indole]	11400 nM	4.6 nM
Cc1nc(C)nc(N2CCc3c([nH]c4ccc(Cl)cc34)C2c2cnc(N3CCOCC3)nc2)n1 (stereo not shown) [Compound 293, 6-chloro-2-(4,6-dimethyl-1,3,5-triazin-2-yl)-1-[2-(morpholin-4-yl)pyrimidin-5-yl]-2,3,4,9-tetrahydro-1H-pyrido[3,4-b]indole]	10600 nM	12.8 nM
Cc1ncnc(N2CCc3c([nH]c4ccc(Cl)cc34)C2c2cnc(N3CCOCC3)nc2)n1 (stereo not shown) [Compound 294, 6-chloro-2-(4-methyl-1,3,5-triazin-2-yl)-1-[2-(morpholin-4-yl)pyrimidin-5-yl]-2,3,4,9-tetrahydro-1H-pyrido[3,4-b]indole]	12400 nM	20.8 nM
Cc1ccc(C2c3[nH]c4ccc([N+](=O)[O-])cc4c3CCN2c2nccc(C(F)(F)F)n2)c(F)c1F (stereo not shown) [Compound 305, 1-(2,3-difluoro-4-methylphenyl)-6-nitro-2-[4-(trifluoromethyl)pyrimidin-2-yl]-2,3,4,9-tetrahydro-1H-pyrido[3,4-b]indole]	11600 nM	1 nM
Nc1cc(Cl)cc2c3c([nH]c12)C(c1cnc(N2CCOCC2)nc1)N(c1nccc(C(F)(F)F)n1)CC3 (stereo not shown) [Compound 310, 6-chloro-1-[2-(morpholin-4-yl)pyrimidin-5-yl]-2-[4-(trifluoromethyl)pyrimidin-2-yl]-2,3,4,9-tetrahydro-1H-pyrido[3,4-b]indol-8-amine]	14400 nM	1.1 nM
Nc1cc2[nH]c3c(c2cc1Cl)CCN(c1nccc(C(F)(F)F)n1)C3c1cnc(N2CCOCC2)nc1 (stereo not shown) [Compound 311, 6-chloro-1-[2-(morpholin-4-yl)pyrimidin-5-yl]-2-[4-(trifluoromethyl)pyrimidin-2-yl]-2,3,4,9-tetrahydro-1H-pyrido[3,4-b]indol-7-amine]	8470 nM	2.1 nM
FC(F)(F)c1ccnc(N2CCc3c([nH]c4ccc(-n5nccn5)cc34)C2c2ccc(N3CCOCC3)nc2)n1 (stereo not shown) [Compound 316, 1-[6-(morpholin-4-yl)pyridin-3-yl]-6-(2H-1,2,3-triazol-2-yl)-2-[4-(trifluoromethyl)pyrimidin-2-yl]-2,3,4,9-tetrahydro-1H-pyrido[3,4-b]indole]	10700 nM	3.8 nM
Cc1nc(C)nc(N2CCc3c([nH]c4cc(N)c(Cl)cc34)C2c2cnc(N3CCOCC3)nc2)n1 (stereo not shown) [Compound 320, 6-chloro-2-(4,6-dimethyl-1,3,5-triazin-2-yl)-1-[2-(morpholin-4-yl)pyrimidin-5-yl]-2,3,4,9-tetrahydro-1H-pyrido[3,4-b]indol-7-amine]	9810 nM	11.7 nM
